The source of these data is patent US10351519B2, “Sulfamate derivative compounds, processes for preparing them and their uses” (BIO-PHARM SOLUTIONS CO., LTD., priority 2016, dated 2019).

What all share (format): in vivo
The subject of assay [1] is Sprague-Dawley rats. Nature of the assay: Lithium-pilocarpine induced epilepsy test, prevention. The note with it: for ED50: Rattus norvegicus, ip, read-out: Lithium pilocarpine model (pre) ED50; for Lithium pilocarpine model (pre) peak time: i.p. The method, then: Male Sprague-Dawley rats (purchased from Orient Bio Inc. Korea) of body weight 175-200 grams were used for these studies and 3 rats per cage were housed for 4-5 days. On the day prior to SE, rats received 127 mg/kg lithium chloride (Sigma, St. Louis, Mo., U.S.A.) intraperitoneally (i.p.). Approximately 18-20 h following this treatment, rats were given an i.p. injection of CD97 dose (30-43 mg/kg) pilocarpine (Sigma). An i.p. injection of 2 mg/kg methyl-scopolamine (Sigma) was administered 30 min prior to pilocarpine to block the effects of the muscarinic agonist on peripheral cholinergic receptors. Test drugs were dissolved in 30% PEG 400 or 20% tween80 (Sigma).
The drugs were administered intraperitoneally (i.p.) in a volume of 2 ul/g body weight. Pharmacological effects of all of the test materials were evaluated to compare test groups (n=6) with a control group (n=6). Control group was administered vehicle only. The efficacy was measured 0.5, 1, 2, or 4 hours after the administration of the test material. The time point that the most animals were protected was defined as peak time and the ED50 was determined at peak time. The animals were then transferred to observation cages and observed continuously for 90 min. Seizure was elicited in approximately 95% of the control group. Protection was defined as complete absence of seizure grade 3-5 (Racine scale; Racine, 1972) over the 90-min observation period. The effective dose of the compound necessary to protect 50% of the animals against seizures compared to controls (i.e. ED50) was determined by a curve fitting program (Excel 2007, Microsoft).

Assay [2] deals with Sprague-Dawley rats. Kind of assay: Antiallodynic activity on Complete Freund's Adjuvant (CFA)-induced inflammatory pain model. The note with it: intraperitoneally; for response vs control in vivo at 50 mg/kg / ED50: Rattus norvegicus, ip; for response vs control in vivo at 50 mg/kg: read-out: CFA-induced pain model efficacy %; for ED50: at peak time.
The test system of assay [3] is ICR mice. Kind of assay: Anti-epilepsy activity, MES test, mouse. The note with it: for ED50: po. The method, boiled down: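 Maximal electroshock delivered through corneal electrodes at 60 Hz for 0.2 s: 50 mA for male ICR mice (19–25 g), 150 mA for male SD rats (100–130 g). Compounds given orally in 30% PEG 400 or 20% Tween 80 in saline, tested at peak time, three doses per compound. ED50 for seizure protection derived by Litchfield–Wilcoxon log-probit analysis.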

The test system of assay [4] is ICR mice. Nature of the assay: Chemical induced seizure model (PIC, picrotoxin). Particulars: for ED50: Mus musculus, ip. The method, then: Picrotoxin (PIC) were used to induce the behavioral seizures in the experiments. Male ICR mice (purchased from Orient Bio Inc. Korea) of body weight 19-26 g (mice) were used for these studies. The test materials were administered intraperitoneal (ip) route in a volume of 10 ul/g (mice) weight in mice, respectively. Pharmacological effects of the test materials were evaluated to compared test groups (n=6) with a control group (n=6). Control group was administrated vehicle, only. The peak time was determined by administration of test material's random dose for 0.5, 1, 2, 4 hour. The time that the most protect was defined as a peak time and ED50 was determined by other dose administration at the peak time. Chemical (PIC) was dissolved in 0.9% saline and administered subcutaneously (s.c.) at its CD97 (convulsive dose 97%), the dose of Chemical (PIC) that produced clonic seizures in 97% into a loose fold of skin in the midline of the neck in a volume of 10 ul/g (mice) body weight. The animals were then transferred to observation cages and observed continuously for 45 min (PIC). Clonic seizure was elicited in approximately 97% of control group. Protection was defined as a complete absence of clonic seizure over the 45-min observation period. The effective dose of compound necessary to protect against generalized convulsive seizures to 50% of controls (i.e. ED50) was determined by log probit analysis using SPSS software program (SPSS Inc.). (Reference; White H. S., J. H. Woodhead, K. S. Wilcox, J. P. Stables, H. J. Kupferberg, and H. H. Wolf. General Principles; Discovery and Preclinical De-velopment of Antiepileptic Drugs. In: R. H. Levy, R. H. Mattson, B. S. Meldrum, and E. Perucca, eds. Antiepileptic Drugs, 5th Ed. Lippincott Williams & Wilkins, Philadelphia 2002: pp. 36-48.) The obtained results are shown in following Table 10.

By ED50 is commonly meant the dose that gives a 50% effect, or the effect in half of the subjects. As for `COCO[C@H](c1ccccc1Cl)[C@@H](C)OS(N)(=O)=O` [Example 70, (1R, 2R)-1-(2-chlorophenyl)-1-(methoxymethoxy)propan-2-yl sulfamate], in assay [1], the ED50 came out at 100 mg/kg and the “Lithium pilocarpine model (pre) peak time” value (from here on “Lithium pilocarpine model”) is “(0.5 h)”. For the same compound, in assay [2], the response vs control in vivo at 50 mg/kg is 23.7% and the “CFA-induced pain model Peak Time” value turned out to be 0.5 h. In assay [3], the “MES test (po) Peak time” value came to 2 h and it took a dose of 50.5 mg/kg to reach the 50% effect level (ED50).

For the compound `C[C@H](OS(N)(=O)=O)[C@@H](O)c1c(Cl)cccc1Cl` [Example 7, (1S, 2S)-1-(2,6-dichlorophenyl)-1-hydroxypropan-2-yl sulfamate], in assay [1], the ED50 amounted to 23.3 mg/kg and the “Lithium pilocarpine model” value was “(0.5 h)”. Also, in assay [2], the ED50 is 31.9 mg/kg and the “CFA-induced pain model Peak Time” value turned out to be 1 h. Moreover, in assay [4], the “PIC(ip) Peak Time” value is 0.5 h and the ED50 was 28.5 mg/kg. Moreover, in assay [3], the “MES test (po) Peak time” value stood at 1 h and the ED50 turned out to be 40.7 mg/kg.

For `C[C@@H](OS(N)(=O)=O)[C@H](O)c1c(Cl)cccc1Cl` [Example 8, (1R, 2R)-1-(2,6-dichlorophenyl)-1-hydroxypropan-2-yl sulfamate], in assay [1], the ED50 came to 29.3 mg/kg and the “Lithium pilocarpine model” value is reported as “(2 h)”. For the same compound, in assay [2], the median effective dose (ED50) was 52.7 mg/kg and the “CFA-induced pain model Peak Time” value came to 0.5 h. In addition, in assay [4], the “PIC(ip) Peak Time” value was determined as 1 h and the ED50 came to 73.9 mg/kg. In assay [3], the “MES test (po) Peak time” value amounted to 2 h and the 50% effect level (ED50) was put at a dose of 27.9 mg/kg.

`C[C@@H](OS(N)(=O)=O)[C@H](O)c1ccccc1Cl` [Example 2, (1R, 2R)-1-(2-chlorophenyl)-1-hydroxypropan-2-yl sulfamate]: in assay [2], the response vs control in vivo at 50 mg/kg turned out to be 23% and the “CFA-induced pain model Peak Time” value worked out at 1 h. For the same compound, in assay [4], the “PIC(ip) Peak Time” value worked out at 1 h and the ED50 is 24.1 mg/kg. In assay [3], the “MES test (po) Peak time” value turned out to be 2 h and it took a dose of 22.8 mg/kg to reach the 50% effect level (ED50).
